Results published in patent EP0354042A2, “Aminobenzoic-acid derivatives to reduce side effects induced by an administration of immuno-suppressant” (priority 1988, dated 1990).

Columns and labels:
[1] = tested on: TA100 of Salmonella typhimurium; experiment: Reversion assay (reversion colony test) TA100; type: cell-based
Procedure: (§1) In addition, a reversion assay was performed using TA98 and TA100 of Salmonella typhimurium (both are histidine-requiring bacteria).
(§2) 10% by volume of 0.5 mM bithion solution containing 0.5 mM histidine was added to a soft agar solution (prepared with 6g of NaCl, 6g of agar and 1,000 ml of distilled water). Then, 0.1 ml of a solution containing 1 x 10⁸ of the bacteria and 0.1 ml of a solution of the present substance were added to 2 ml of the soft agar solution, mixed well and obtained soft agar solution was multilayered on a minimal agar medium. The medium layered was cultured at 37°C for 2 days and number of reversion colonies was counted. Furylfuramide (AF2) was used as a positive control.

[2] = Body weight of rats given CsA with the present substance; type: in vivo, Wistar male rats; details: at completion of the test; CsA 25 mg/kg/day i.p. 3 weeks plus present substance 300 mg/kg/day orally
Procedure: (§3) Various clearance tests and a saccharide tolerance test were performed after completion of the administrations. Then, after sacrificing the rats, their blood was taken for serum biochemical and general blood tests.

[3] = tested on: TA98 of Salmonella typhimurium; experiment: Reversion assay (reversion colony test) TA98; type: cell-based
Procedure: as §1, §2

Wistar male rats [4] = experiment: Saccharide tolerance test (pancreas function) of rats given CsA with the present substance; type: in vivo; details: CsA 25 mg/kg/day i.p. 3 weeks plus present substance 300 mg/kg/day orally
Procedure: as §3

Wistar male rats [5] = experiment: Serum biochemical test, total bilirubin (liver function) of rats given CsA with the present substance; type: in vivo; details: CsA 25 mg/kg/day i.p. 3 weeks plus present substance 300 mg/kg/day orally
Procedure: as §3

Wistar male rats [6] = experiment: Kidney function (inulin clearance, serum creatinine) of rats given CsA with the present substance; type: in vivo; details: CsA 25 mg/kg/day i.p. 3 weeks plus present substance 300 mg/kg/day orally
Procedure: as §3

human lymphocyte = experiment: Mixed lymphocyte culture, 3H-thymidine uptake (proliferation of lymphocytes); type: cell-based; details: CsA 0.1 µg/ml plus present substance 100 µg/ml, cultured 6 days;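 note: percent suppression of proliferation derived from uptake with CsA alone versus CsA plus substance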
Procedure: A mixture of 50 µl of human lymphocyte (1.6 x 10⁶/ml) with 50 µl of the lymphocytes treated with mitomycin C (MMC) (1.7 x 10⁶/ml) was cultured for 6 days and an uptake of ³H-thymidine, an index of proliferation of lymphocyte, was studied. The medium used for culture comprised bovine fetal serum (10% in quantity) and RPMI 1640 (90% in quantity). […] From the calculated ratio, the effects of the present substance on immuno function were studied.

Bacillus subtilis M45 = experiment: Mutagenicity Rec-assay, recombination repair deficient strain; details: for Growth Inhibited Area M45 - H17: difference between strains
Procedure: (§4) First, mutagenecity was studied with Rec-assay. […] The present substance was dissolved with sterlized water, 0.05 ml of the solution was absorbed by a round filter paper having a diameter of 8 mm and immediately the filter paper was laid on the medium (B-II agar) in a manner to cover each of the satrt point of the streak. Then, the mdium was cultured for 16 hours at a temperature of 37°C and measured growth inhibited area. Kanamycin was used as a negative control and mitomycin as a positive control.

Bacillus subtilis H17 = experiment: Mutagenicity Rec-assay, recombination repair proficient strain
Procedure: as §4

Jcl:ICR mice = experiment: Acute toxicity (LD50, Litchfield-Wilcoxon); type: in vivo; details: observed 7 days; for LD₅₀ Value Intraperitoneal: in physiological saline solution; for LD₅₀ Value Oral: oral by stomach sonde, in distilled water
Procedure: The acute toxicity was studied with Jcl:ICR mice through intraperitoneal route and oral route. For intraperitoneal route, the present substance was dissolved in a physiological saline solution and a predetermined dose of the substance was administered with an injector to the cavity. For oral route, the present substance was dissolved in a distilled water and administered forcibly through a stomach sonde.
After the administration, observation of toxicopathic symptoms of the mice were continued for 7 days and based on time to time death rates of the mice, LD₅₀ values were calculated. Both surviving and dead mice were anatomized and observed certain organs.

[7] = 5,000 µg/disk, 37°C for 2 days, Drug-free Control 149
[8] = 5,000 µg/disk, 37°C for 2 days, Drug-free Control 13
[9] = 5,000 µg/disk, 16 hours at 37°C

Row | Compound | No. of Reversion Colony TA100 [1, 7] | Body Weight [2] | No. of Reversion Colony TA98 [3, 8] | Blood sugar value measured 10 minutes after the test (Wistar male rats [4]) | Insuline Value 10 Min.After The Test (Wistar male rats [4]) | Insuline Value Before The Test (Wistar male rats [4]) | TBI (seerum total bilirubin value) (Wistar male rats [5]) | Kidney Function Inulin Clearance (Wistar male rats [6]) | Kidney Function Serum Creatinine (Wistar male rats [6]) | Depressing Ratio (human lymphocyte) | Growth Inhibited Area M45 (Bacillus subtilis M45; 500 µg/disk, 16 hours at 37°C) | Growth Inhibited Area M45 - H17 (Bacillus subtilis M45; 500 µg/disk) | Growth Inhibited Area M45 (Bacillus subtilis M45; [9]) | Growth Inhibited Area M45 - H17 (Bacillus subtilis M45; 5,000 µg/disk) | Growth Inhibited Area H17 (Bacillus subtilis H17; 500 µg/disk, 16 hours at 37°C) | Growth Inhibited Area H17 (Bacillus subtilis H17; [9]) | LD₅₀ Value Intraperitoneal (Jcl:ICR mice) | LD₅₀ Value Oral (Jcl:ICR mice) | also measured
1 | O=C(O)c1ccc(NC2OC[C@H](O)[C@H](O)[C@H]2O)cc1 (stereo partly drawn) [Compound 2, p-Aminobenzoic acid-N-L-arabinoside] | 51 n/plate | 220 g | 3 n/plate | 588 mg/dL | 6.12 mµ/ml | 4.02 mµ/ml | 0.35 mg/dL | 1.81 mL/min | 0.65 mg/dL | 26% | 0 mm | 0 mm | 0 mm | 0 mm | 0 mm | 0 mm | 10220 mg/kg | 10800 mg/kg | –
2 | O=C([O-])c1ccccc1NC1OCC(O)C(O)C1O.[Na+] [Compound 4, o-Aminobenzoic acid-N-L-arabinoside] | 59 n/plate | 218 g | 4 n/plate | 591 mg/dL | 6.22 mµ/ml | 3.89 mµ/ml | 0.37 mg/dL | 1.78 mL/min | 0.67 mg/dL | 26% | 0 mm | 0 mm | 8 mm | 4 mm | 0 mm | 4 mm | 7480 mg/kg | 6350 mg/kg | –
3 | O=C(O)c1ccc(NC2OC[C@@H](O)[C@H](O)[C@H]2O)cc1 (stereo partly drawn) [Compound 6, p-Aminobenzoic acid-N-D-xyloside] | 58 n/plate | 208 g | 4 n/plate | 598 mg/dL | 6.20 mµ/ml | 4.28 mµ/ml | 0.35 mg/dL | 1.70 mL/min | 0.66 mg/dL | 26% | 0 mm | 0 mm | 0 mm | 0 mm | 0 mm | 0 mm | 11040 mg/kg | 11750 mg/kg | –
4 | O=C(O)c1ccccc1NC1OC[C@@H](O)[C@H](O)[C@H]1O (stereo partly drawn) [Compound 8, o-Aminobenzoic acid-N-D-xyloside] | 166 n/plate | 211 g | 4 n/plate | 605 mg/dL | 6.18 mµ/ml | 4.21 mµ/ml | 0.38 mg/dL | 1.72 mL/min | 0.65 mg/dL | 27% | 0 mm | 0 mm | 7 mm | 4 mm | 0 mm | 3 mm | 9270 mg/kg | 6350 mg/kg | –
5 | O=C(O)c1ccc(NC2O[C@H](CO)[C@@H](O)[C@H](O)[C@H]2O)cc1 (stereo partly drawn) [Compound 10, p-Aminobenzoic acid-N-D-glucoside] | 104 n/plate | 235 g | 11 n/plate | 612 mg/dL | 6.02 mµ/ml | 4.05 mµ/ml | 0.36 mg/dL | 1.85 mL/min | 0.65 mg/dL | 26% | 0 mm | 0 mm | 0 mm | 0 mm | 0 mm | 0 mm | > 15000 mg/kg | > 15000 mg/kg | –
6 | O=C([O-])c1ccccc1NC1O[C@H](CO)[C@@H](O)[C@H](O)[C@H]1O.[Na+] (stereo partly drawn) [Compound 12, o-Aminobenzoic acid-N-D-glucoside] | 151 n/plate | 232 g | 5 n/plate | 589 mg/dL | 6.12 mµ/ml | 4.11 mµ/ml | 0.36 mg/dL | 1.88 mL/min | 0.64 mg/dL | 27% | 0 mm | 0 mm | 5 mm | 3 mm | 0 mm | 2 mm | 13380 mg/kg | 8960 mg/kg | –
7 | O=C(O)c1ccc(NC2O[C@H](CO)[C@H](O)[C@H](O)[C@H]2O)cc1 (stereo partly drawn) [Compound 14, p-Aminobenzoic acid-N-D-galactoside] | 51 n/plate | 215 g | 7 n/plate | 584 mg/dL | 6.10 mµ/ml | 4.13 mµ/ml | 0.33 mg/dL | 1.88 mL/min | 0.66 mg/dL | 26% | 0 mm | 0 mm | 0 mm | 0 mm | 0 mm | 0 mm | 12000 mg/kg | 14550 mg/kg | –
8 | O=C([O-])c1ccccc1NC1O[C@H](CO)[C@H](O)[C@H](O)[C@H]1O.[Na+] (stereo partly drawn) [Compound 16, o-Aminobenzoic acid-N-D-galactoside] | 151 n/plate | 210 g | 6 n/plate | 587 mg/dL | 6.16 mµ/ml | 4.22 mµ/ml | 0.34 mg/dL | 1.81 mL/min | 0.65 mg/dL | 26% | 0 mm | 0 mm | 6 mm | 5 mm | 0 mm | 1 mm | 7420 mg/kg | 6100 mg/kg | –
9 | NC(=O)/C(=C\c1ccc([N+](=O)[O-])o1)c1ccco1 [Furylfuramide (AF2), Furylfuramide, reference compound] | – | – | – | – | – | – | – | – | – | – | – | – | – | – | – | – | – | – | No. of Reversion Colony TA100 ([1]; 0.1 µg/disk, positive control): 911 n/plate; No. of Reversion Colony TA98 ([3]; 0.1 µg/disk, positive control): 167 n/plate
10 | NC[C@H]1O[C@H](O[C@H]2[C@H](O)[C@@H](O[C@H]3O[C@H](CO)[C@@H](O)[C@H](N)[C@H]3O)[C@H](N)C[C@@H]2N)[C@H](O)[C@@H](O)[C@@H]1O [Kanamycin, reference compound] | – | – | – | – | – | – | – | – | – | – | – | – | – | – | – | – | – | – | Growth Inhibited Area M45 (Bacillus subtilis M45; 10 µg/disk, negative control): 5 mm; Growth Inhibited Area M45 - H17 (Bacillus subtilis M45; 10 µg/disk, negative control): 1 mm; Growth Inhibited Area H17 (Bacillus subtilis H17; Bacillus subtilis, 16 h, 10 µg/disk, pH 7): 4 mm
